{"source": "patent US20240358693A1", "about": "“METHODS OF TREATING PAIN” (Aisa Pharma, Inc., priority 2023, published 2024)", "test_system": "participants with SSc-RP", "experiment": "Scleroderma Health Assessment Questionnaire (SHAQ): disability indices and visual analog scales", "format": "in vivo, human", "settings": "PP Population, Part A, SSc patients, sensitivity analysis", "source_text": "The standard, validated, patient reported outcome measures tool for SSc patients, the Scleroderma Health Assessment Questionnaire (SHAQ), will be used to assess the participant qualify of life. Details are attached in the Appendix. The participant quality of life will be scored, and a disability index calculated for each questionnaire completed by the patient at Screening and each in-clinic visit. The absolute change in participant quality of life from baseline to the end of each dosing period will be calculated similar to frequency data as before.\nThe SHAQ includes a Raynaud's VAS, which will be reported at screening and each in-clinic visit. The absolute change in Raynaud-VAS, assessed by the participants response to the SHAQ question ‘In the past 7 days, how much have your Raynaud's interfered with your daily activities?’ at baseline and the end of each dosing period will be calculated similar to frequency data as before.\nThe SHAQ is used to calculate a Disability Index to assess the participant qualify of life. The eight categories assessed by the Disability Index are 1) dressing and grooming, 2) arising, 3) eating, 4) walking, 5) hygiene, 6) reach, 7) grip, and 8) common daily activities. For each of these categories, patients report the amount of difficulty they have in performing two or three specific activities.\nThere are four possible responses for the Disability Index questions: • Without any difficulty=0 • With some difficulty=1 • With much difficulty=2 • Unable to do=3. • The highest score reported by the patient for any component question of the eight categories determines the score for that category. • If a component question is left blank or the response is too ambiguous to assign a score, then the score for that category is determined by the remaining completed question(s). • If all component questions are blank or if more than one answer is given, then follow up with the respondent is required. • If the respondent's mark is between the response columns, then move it to the closest one. If it's directly between the two, move it to the higher one.\nEach of the disability items on the SHAQ has a companion aids/devices variable that is used to record what type(s) of assistance, if any, the participant uses for his/her usual activities. These variables (see below) are coded as follows: • 0=No assistance is needed. • 1=A special device is used by the patient in his/her usual activities. • 2=The patient usually needs help from another person. • 3=The patient usually needs BOTH a special device AND help from another person.\nThe scoring variables and scoring rules permit the computation of two disability indices, the Standard Disability Index and the Alternative Disability Index.\nThis question results in a new set of category scores that are computed by adjusting the score for each category, if necessary, based on the patient's use of an aid or device or assistance for that category. If either devices and/or help from another person are checked for a category, the score is set to “2”, unless the score is already “3” (i.e., scores of “0” or “1” are increased to “2”). For example, if the highest score for the dressing category is “1”, and the patient says they use a device for dressing, the computed category score would be “2”. The sum of the computed categories scores is then calculated and divided by the number of categories answered. This gives a score in the 0 to 3 range.\nThe aid and device variables are not used to calculate the alternative disability index; it is calculated by adding the scores for each of the categories and dividing by the number of categories answered. This gives a score in the 0 to 3 range.\nThe standard, validated, patient reported outcome measures tool for SSc patients, the SHAQ, was collected at the time points specified in the study schedules (FIG. 2 and FIGS. 4A and 4B) to assess the participant's quality of life. The SHAQ included a Raynaud's VAS that will also be reported separately.", "key": {"[1]": {"settings": "Day 12 vs baseline, Subject 01-110 Day 12 score excluded"}, "[2]": {"settings": "In-Clinic Visit (Day 12), Subject 01-110 Day 12 score excluded"}}}
{"molecule": "COCCOC(=O)C1=C(C)NC(C)=C(C(=O)OC/C=C/c2ccccc2)C1c1cccc([N+](=O)[O-])c1", "note": "(stereo not drawn) [Any Cilnidipine]", "values": [{"measurement": "SHAQ Visual Analogue Scale - Raynaud’s, Change from Baseline, Min", "setting": "Day 12 vs baseline", "result": "−4.10"}, {"measurement": "SHAQ Visual Analogue Scale - Raynaud’s, Change from Baseline, Q1", "setting": "Day 12 vs baseline", "result": "−1.000"}, {"measurement": "SHAQ Visual Analogue Scale - Raynaud’s, Change from Baseline, Q3", "setting": "Day 12 vs baseline", "result": 0.000}, {"measurement": "SHAQ Visual Analogue Scale - Raynaud’s, Percent Change from Baseline, Max", "setting": "Day 12 vs baseline", "result": 136.4, "unit": "%"}, {"measurement": "SHAQ Visual Analogue Scale - Raynaud’s, Percent Change from Baseline, Mean", "setting": "Day 12 vs baseline", "result": "−20.44", "unit": "%"}, {"measurement": "SHAQ Visual Analogue Scale - Raynaud’s, Percent Change from Baseline, Median", "setting": "Day 12 vs baseline", "result": "−33.33", "unit": "%"}, {"measurement": "SHAQ Visual Analogue Scale - Raynaud’s, Percent Change from Baseline, Min", "setting": "Day 12 vs baseline", "result": "−100.0", "unit": "%"}, {"measurement": "SHAQ Visual Analogue Scale - Raynaud’s, Percent Change from Baseline, Q1", "setting": "Day 12 vs baseline", "result": "−50.62", "unit": "%"}, {"measurement": "SHAQ Visual Analogue Scale - Raynaud’s, Percent Change from Baseline, Q3", "setting": "Day 12 vs baseline", "result": 0.00, "unit": "%"}, {"measurement": "SHAQ Visual Analogue Scale - Breathing Problems, Change from Baseline, Max", "setting": "[1]", "result": 3.70}, {"measurement": "SHAQ Visual Analogue Scale - Breathing Problems, Change from Baseline, Mean", "setting": "[1]", "result": 0.025}, {"measurement": "SHAQ Visual Analogue Scale - Breathing Problems, Change from Baseline, Median", "setting": "[1]", "result": 0.000}, {"measurement": "SHAQ Visual Analogue Scale - Breathing Problems, Change from Baseline, Min", "setting": "[1]", "result": "−2.00"}, {"measurement": "SHAQ Visual Analogue Scale - Breathing Problems, Change from Baseline, Q1", "setting": "[1]", "result": "−0.700"}, {"measurement": "SHAQ Visual Analogue Scale - Breathing Problems, Change from Baseline, Q3", "setting": "[1]", "result": 0.450}, {"measurement": "SHAQ Visual Analogue Scale - Breathing Problems, Percent Change from Baseline, Max", "setting": "[1]", "result": 600.0, "unit": "%"}, {"measurement": "SHAQ Visual Analogue Scale - Breathing Problems, Percent Change from Baseline, Mean", "setting": "[1]", "result": 50.12, "unit": "%"}, {"measurement": "SHAQ Visual Analogue Scale - Breathing Problems, Percent Change from Baseline, Median", "setting": "[1]", "result": "−16.00", "unit": "%"}, {"measurement": "SHAQ Visual Analogue Scale - Breathing Problems, Percent Change from Baseline, Min", "setting": "[1]", "result": "−100.0", "unit": "%"}, {"measurement": "SHAQ Visual Analogue Scale - Breathing Problems, Percent Change from Baseline, Q1", "setting": "[1]", "result": "−75.00", "unit": "%"}, {"measurement": "SHAQ Visual Analogue Scale - Breathing Problems, Percent Change from Baseline, Q3", "setting": "[1]", "result": 115.63, "unit": "%"}, {"measurement": "SHAQ Alternative Disability Index, Max", "setting": "In-Clinic Visit (Day 12)", "result": 1.50}, {"measurement": "SHAQ Alternative Disability Index, Mean", "setting": "In-Clinic Visit (Day 12)", "result": 0.450}, {"measurement": "SHAQ Alternative Disability Index, Median", "setting": "In-Clinic Visit (Day 12)", "result": 0.250}, {"measurement": "SHAQ Alternative Disability Index, Min", "setting": "In-Clinic Visit (Day 12)", "result": 0.00}, {"measurement": "SHAQ Alternative Disability Index, Q1", "setting": "In-Clinic Visit (Day 12)", "result": 0.000}, {"measurement": "SHAQ Alternative Disability Index, Q3", "setting": "In-Clinic Visit (Day 12)", "result": 0.714}, {"measurement": "SHAQ Visual Analogue Scale - Finger Ulcers, Max", "setting": "In-Clinic Visit (Day 12)", "result": 5.60}, {"measurement": "SHAQ Visual Analogue Scale - Finger Ulcers, Mean", "setting": "In-Clinic Visit (Day 12)", "result": 0.731}, {"measurement": "SHAQ Visual Analogue Scale - Finger Ulcers, Median", "setting": "In-Clinic Visit (Day 12)", "result": 0.000}, {"measurement": "SHAQ Visual Analogue Scale - Finger Ulcers, Min", "setting": "In-Clinic Visit (Day 12)", "result": 0.00}, {"measurement": "SHAQ Visual Analogue Scale - Finger Ulcers, Q1", "setting": "In-Clinic Visit (Day 12)", "result": 0.000}, {"measurement": "SHAQ Visual Analogue Scale - Finger Ulcers, Q3", "setting": "In-Clinic Visit (Day 12)", "result": 0.900}, {"measurement": "SHAQ Visual Analogue Scale - Intestinal Problems, Max", "setting": "In-Clinic Visit (Day 12)", "result": 4.50}, {"measurement": "SHAQ Visual Analogue Scale - Intestinal Problems, Mean", "setting": "In-Clinic Visit (Day 12)", "result": 1.121}, {"measurement": "SHAQ Visual Analogue Scale - Intestinal Problems, Median", "setting": "In-Clinic Visit (Day 12)", "result": 0.600}, {"measurement": "SHAQ Visual Analogue Scale - Intestinal Problems, Min", "setting": "In-Clinic Visit (Day 12)", "result": 0.00}, {"measurement": "SHAQ Visual Analogue Scale - Intestinal Problems, Q1", "setting": "In-Clinic Visit (Day 12)", "result": 0.000}, {"measurement": "SHAQ Visual Analogue Scale - Intestinal Problems, Q3", "setting": "In-Clinic Visit (Day 12)", "result": 1.900}, {"measurement": "SHAQ Visual Analogue Scale - Overall Disease Severity, Max", "setting": "In-Clinic Visit (Day 12)", "result": 7.30}, {"measurement": "SHAQ Visual Analogue Scale - Overall Disease Severity, Mean", "setting": "In-Clinic Visit (Day 12)", "result": 2.203}, {"measurement": "SHAQ Visual Analogue Scale - Overall Disease Severity, Median", "setting": "In-Clinic Visit (Day 12)", "result": 1.400}, {"measurement": "SHAQ Visual Analogue Scale - Overall Disease Severity, Min", "setting": "In-Clinic Visit (Day 12)", "result": 0.00}, {"measurement": "SHAQ Visual Analogue Scale - Overall Disease Severity, Q1", "setting": "In-Clinic Visit (Day 12)", "result": 0.800}, {"measurement": "SHAQ Visual Analogue Scale - Overall Disease Severity, Q3", "setting": "In-Clinic Visit (Day 12)", "result": 3.050}, {"measurement": "SHAQ Visual Analogue Scale - Pain, Max", "setting": "In-Clinic Visit (Day 12)", "result": 5.50}, {"measurement": "SHAQ Visual Analogue Scale - Pain, Mean", "setting": "In-Clinic Visit (Day 12)", "result": 2.476}, {"measurement": "SHAQ Visual Analogue Scale - Pain, Median", "setting": "In-Clinic Visit (Day 12)", "result": 2.200}, {"measurement": "SHAQ Visual Analogue Scale - Pain, Min", "setting": "In-Clinic Visit (Day 12)", "result": 0.00}, {"measurement": "SHAQ Visual Analogue Scale - Pain, Q1", "setting": "In-Clinic Visit (Day 12)", "result": 1.000}, {"measurement": "SHAQ Visual Analogue Scale - Pain, Q3", "setting": "In-Clinic Visit (Day 12)", "result": 3.800}, {"measurement": "SHAQ Visual Analogue Scale - Raynaud’s, Max", "setting": "In-Clinic Visit (Day 12)", "result": 5.20}, {"measurement": "SHAQ Visual Analogue Scale - Raynaud’s, Mean", "setting": "In-Clinic Visit (Day 12)", "result": 2.022}, {"measurement": "SHAQ Visual Analogue Scale - Raynaud’s, Median", "setting": "In-Clinic Visit (Day 12)", "result": 1.400}, {"measurement": "SHAQ Visual Analogue Scale - Raynaud’s, Min", "setting": "In-Clinic Visit (Day 12)", "result": 0.00}, {"measurement": "SHAQ Visual Analogue Scale - Raynaud’s, Q1", "setting": "In-Clinic Visit (Day 12)", "result": 0.500}, {"measurement": "SHAQ Visual Analogue Scale - Raynaud’s, Q3", "setting": "In-Clinic Visit (Day 12)", "result": 4.000}, {"measurement": "SHAQ Visual Analogue Scale - Breathing Problems, Max", "setting": "[2]", "result": 6.90}, {"measurement": "SHAQ Visual Analogue Scale - Breathing Problems, Mean", "setting": "[2]", "result": 1.388}, {"measurement": "SHAQ Visual Analogue Scale - Breathing Problems, Median", "setting": "[2]", "result": 0.300}, {"measurement": "SHAQ Visual Analogue Scale - Breathing Problems, Min", "setting": "[2]", "result": 0.00}, {"measurement": "SHAQ Visual Analogue Scale - Breathing Problems, Q1", "setting": "[2]", "result": 0.000}, {"measurement": "SHAQ Visual Analogue Scale - Breathing Problems, Q3", "setting": "[2]", "result": 1.800}]}
